Assay results from US11179445B2, “Pharmaceutical composition and biomaterial comprising fusion peptide in which bone tissue-selective peptide bound to parathyroid hormone (PTH) or fragment thereof” (Nano Intelligent Biomedical Engineering Corporation Co. Ltd., priority 2017, dated 2021).

Experiments:
[1] = cited from earlier work
[2] = Concentration of calcium in blood of osteoporosis-induced mice (QuantiChrom calcium assay kit); type: in vivo; conditions: ovariectomized ICR mice; PTH 20 μg/kg daily for 3 months, fusion peptide 80 pg/kg weekly for 6 months
Description: Six week-old ICR mice were anesthetized by intramuscular injection using a mixture of 10 mg/kg of xylazine (Rompun®, Bayer, Korea) and 100 mg/kg of ketamine (Ketalar®, Yuhan Co., Ltd., Korea) and then the ovaries present below the bilateral kidneys were entirely removed carefully. Suturing was performed by an ordinary method and 3 mg/kg of gentamicin (Gentamycin®, JW Pharmaceutical Corporation, Korea) was intramuscularly injected.
Three months after the ovariectomy, whether or not bone loss occurred was checked. […] The change in bone density was evaluated, as compared with a group not treated with osteoporosis.
The concentration of calcium in blood was determined using a QuantiChrom™ calcium assay kit (Bioassay Systems, Hayward, Calif.). […] One of the effects of PTH on the human body is to increase the concentration of calcium in blood by affecting bones and kidneys. Therefore, long-term administration of PTH causes side effects that induce hypercalcemia.

Row | Compound | half-life ([1]; subcutaneous injection once a day) [h] | side effects ([1]; upon use for a long time of 2 years or longer) | concentration of calcium in blood [2]
1 | CC[C@H](C)[C@H](NC(=O)[C@H](CCC(=O)O)NC(=O)[C@H](CO)NC(=O)[C@@H](NC(=O)[C@@H](N)CO)C(C)C)C(=O)N[C@@H](CCC(N)=O)C(=O)N[C@@H](CC(C)C)C(=O)N[C@@H](CCSC)C(=O)N[C@@H](Cc1cnc[nH]1)C(=O)N[C@@H](CC(N)=O)C(=O)N[C@@H](CC(C)C)C(=O)NCC(=O)N[C@@H](CCCCN)C(=O)N[C@@H](Cc1cnc[nH]1)C(=O)N[C@@H](CC(C)C)C(=O)N[C@@H](CC(N)=O)C(=O)N[C@@H](CO)C(=O)N[C@@H](CCSC)C(=O)N[C@@H](CCC(=O)O)C(=O)N[C@@H](CCCN=C(N)N)C(=O)N[C@H](C(=O)N[C@@H](CCC(=O)O)C(=O)N[C@@H](Cc1c[nH]c2ccccc12)C(=O)N[C@@H](CC(C)C)C(=O)N[C@@H](CCCN=C(N)N)C(=O)N[C@@H](CCCCN)C(=O)N[C@@H](CCCCN)C(=O)N[C@@H](CC(C)C)C(=O)N[C@@H](CCC(N)=O)C(=O)N[C@@H](CC(=O)O)C(=O)N[C@H](C(=O)N[C@@H](Cc1cnc[nH]1)C(=O)N[C@@H](CC(N)=O)C(=O)N[C@@H](Cc1ccccc1)C(=O)O)C(C)C)C(C)C [Forteo] | ≤ 1 | hypercalcemia and even a high incidence of osteosarcoma | –
2 | CC[C@H](C)[C@H](NC(=O)[C@H](CCC(=O)O)NC(=O)[C@H](CO)NC(=O)[C@@H](NC(=O)[C@@H](N)CO)C(C)C)C(=O)N[C@@H](CCC(N)=O)C(=O)N[C@@H](CC(C)C)C(=O)N[C@@H](CCSC)C(=O)N[C@@H](Cc1cnc[nH]1)C(=O)N[C@@H](CC(N)=O)C(=O)N[C@@H](CC(C)C)C(=O)NCC(=O)N[C@@H](CCCCN)C(=O)N[C@@H](Cc1cnc[nH]1)C(=O)N[C@@H](CC(C)C)C(=O)N[C@@H](CC(N)=O)C(=O)N[C@@H](CO)C(=O)N[C@@H](CCSC)C(=O)N[C@@H](CCC(=O)O)C(=O)N[C@@H](CCCN=C(N)N)C(=O)N[C@H](C(=O)N[C@@H](CCC(=O)O)C(=O)N[C@@H](Cc1c[nH]c2ccccc12)C(=O)N[C@@H](CC(C)C)C(=O)N[C@@H](CCCN=C(N)N)C(=O)N[C@@H](CCCCN)C(=O)N[C@@H](CCCCN)C(=O)N[C@@H](CC(C)C)C(=O)N[C@@H](CCC(N)=O)C(=O)N[C@@H](CC(=O)O)C(=O)N[C@H](C(=O)N[C@@H](Cc1cnc[nH]1)C(=O)N[C@@H](CC(N)=O)C(=O)N[C@@H](Cc1ccccc1)C(=O)O)C(C)C)C(C)C [PTH, reference compound] | – | – | increased the concentration of calcium at one month
